Assay results from article PMC3235747, “Bioassay-Guided Isolation of Cytotoxic Cycloartane Triterpenoid Glycosides from the Traditionally Used Medicinal Plant Leea indica” (Evidence-based Complementary and Alternative Medicine : eCAM, 2011).
In brackets after ≈: the same amount, converted by molar mass. Several values for one entry are separate records, joined by “and”; a condition that tells them apart may be missing. Equal values may be shown once. Read-outs that look alike come from different tables or passages of the source.

Experiments:
Type in all cases: cell-based, human
[1] = MTT assay, 72 h exposure, Ca Ski cells; conditions: human
Experimental: (§1) The human cervical epidermoid carcinoma cell line (Ca Ski, ATCC number CRL-1550) and human fibroblast cell line (MRC 5, ATCC number CCL-171) were purchased from the American Type Culture Collection (ATCC, USA). Ca Ski cells were maintained in RPMI 1640 Medium (Sigma) and MRC 5 cells in EMEM (Eagle Minimum Essential Medium) (Sigma). The media were supplemented with 10% (v/v) heat-inactivated fetal bovine serum (PAA Lab, Austria), 100 μg/mL streptomycin and 100 unit/mL penicillin (PAA Lab, Austria), and 50 μg/mL amphotericin B (PAA Lab, Austria). The media were filter-sterilized using a 0.22 μm filter membrane (Minisart, Sartorius stedim). The cells were cultured in 5% CO2 incubator at 37°C in a humidified atmosphere. MTT assay was modified from Mossmann and used to evaluate the cytotoxic effects of each fraction and compounds. MTT assay is widely used to assess the viability and/or the metabolic state of the cells based on mitochondrial respiratory activity. A total of 5 × 10^3 cells were seeded into each well of 96-well plates and allowed to adhere for 24 h. After 24 h, the cells were treated with the fractions or compounds in the final concentrations ranging from 3.125 to 100 μg/mL. Each concentration was performed in triplicate well. Control cells were treated with vehicle DMSO to get the final concentration of 0.5% v/v. The cells were then incubated for 72 h. After 72 h exposure period, MTT (5 mg/mL) was added and further incubated for 4 h at 37°C. The medium was then aspirated and the crystals formed were dissolved in 150 μL DMSO. The absorbance was measured at 570 nm against the reference wavelength of 650 nm. The percentage of viability was calculated based on the formula: Viability (%) = (absorbance of treated cells/absorbance of control cells) × 100%. The IC50 (concentration that reduces cell viability to 50%) was derived from the dose-response curves.

[2] = tested on: Ca Ski cervical cancer cells; test: MTT assay, 72 h exposure, Ca Ski cells; conditions: for decrease in cell viability: Ca Ski cells, 3.125–100 μg/mL
Experimental: as §1

MRC 5 normal cells = test: MTT assay, 72 h exposure, MRC 5 normal cells; conditions: for IC50: Homo sapiens, MRC5, 72 h; for fold higher IC50 against MRC 5 compared to CPT: MRC 5, relative to camptothecin
Experimental: as §1, with “curves. MRC 5 cell line was used as a normal cell model for the calculation of selectivity index (SI). SI value was calculated by dividing the IC50 value of the MRC 5 cell line with the IC50 value of Ca Ski cell line.” for “curves.”

Ca Ski cells [3] = test: MTT recovery assay (72 h exposure then 72 h recovery)
Experimental: In order to determine whether the cytotoxicity is cytostatic or cytocidal, a recovery assay was conducted whereby after the 72 h incubation (exposure period), the medium containing the compound was removed, washed with medium, and replaced with medium alone for a recovery period of 72 h followed by addition of MTT and measurement as described earlier. A sample is showing cytostatic effect when the IC50 in the recovery assay was higher than that of the exposure assay. Whereas for cytocidal effect, the IC50 obtained in the recovery assay is similar to that shown by the exposure assay.

Ca Ski cells [4] = test: Trypan blue exclusion (TBE) assay, viable cell count; conditions: 60 μM
Experimental: Ca Ski cells were cultured at a density of 1 × 10^6 cells/mL in 60 mm culture dishes. After 24 h of attachment, the cells were treated without or with 60 μM of MAA for different time periods. After 6–72 h, the cells were harvested, washed with medium, and the cell pellets were resuspended in medium. After incubation in 0.4% trypan blue for 5 min, viable cells were counted using a hemocytometer. At the indicated time point straight before the cells were harvested, the cells were visualized under an inverted phase-contrast microscope (Motic) to observe the cell morphological changes upon treatment, and photographs were taken.

[5] = tested on: proliferating cell nuclear antigen (PCNA) expression in Ca Ski cells; test: Q-PCR analysis of PCNA expression; conditions: 20–100 μM for 24 h; 60 μM for 0–24 h; relative to untreated control, normalized with GAPDH
Experimental: A total of 1 × 10^6 Ca Ski cells were seeded into 60 mm culture dishes and incubated for 24 h for attachment. Cells were then treated without or with 20-100 μM of MAA for 24 h. For time-course study, cells were treated with 60 μM MAA for 0, 3, 6, 12, and 24 h. After specific treatment period, cells were harvested and total RNA was isolated using the RNAqueous-4PCR kit (Applied Biosystem) according to the manufacturer's directions. The RNA concentration was determined using spectrophotometry. The gene expression of PCNA was assessed by one-step SYBR Green relative real-time PCR (Rotor-Gene System, Qiagen) and normalized to GAPDH reference control amplifications. The primer sequences for PCNA and GAPDH were forward [NT], reverse [NT] and forward [NT], reverse [NT], respectively. The PCR amplification reactions were carried out in a total volume of 25 μL for 30 cycles of 45 seconds at 95°C, 45 seconds at 56°C, and 120 seconds at 72°C. The mean fluorescence threshold value (CT) of each sample was obtained according to the manufacturer's guidelines and used to determine ΔCT values where by ΔCT = CT target gene (PCNA) - CT reference gene (GAPDH).

Ca Ski cells [6] = test: Cell cycle analysis by PI staining and flow cytometry; conditions: 60 μM
Experimental: The cell cycle distribution was assessed using propidium iodide (PI) staining. Ca Ski cells were seeded in 60 mm culture dishes (1 × 10^6 cells) and left 24 h for attachment. The cells were then treated without or with 60 μM MAA for 12–72 h. After the designated treatment period, both adherent and floating cells were harvested and washed twice with PBS. Cell pellets were resuspended in 100 μL of PBS and fixed with absolute ethanol and stored at −20°C for 24 h. Fixed cells were washed twice with PBS, and the cell pellets were incubated in a buffer containing 50 μg/mL PI, 0.1% sodium citrate, 0.1% Triton-X-100, and 100 μg/mL RNase A for 45 min in the dark at room temperature. The percentage of cells in the sub-G1, G1, S, and G2/M-phases of the cell cycle was then analyzed using a FACS Calibur flow cytometer (Beckton Dickinson). Data were acquired and analyzed using Cell Quest software (Becton Dickinson).

[7] = Homo sapiens, Ca-Ski, 72 h, MTT, 72 h exposure

Row | SMILES | selectivity ratio at 72 h ([1]; Ca Ski cervical carcinoma cells vs MRC 5 fibroblast cells, Ca Ski vs MRC 5, read-out: selectivity index (IC50 MRC 5 / IC50 Ca Ski), times more cytotoxic to Ca Ski cells compared to MRC5) | decrease in cell viability ([2]; 72 h) | IC50 [2, 7] | IC50 (MRC 5 normal cells; MTT, 72 h exposure) | fold higher IC50 against MRC 5 compared to CPT (MRC 5 normal cells) | IC50 in the recovery assay compared with the exposure assay (Ca Ski cells [3]) | effect on cell proliferation (viable cell count) (Ca Ski cells [4]; 6 h) | effect on cell proliferation (viable cell count) (Ca Ski cells [4]; 12 h and 24 h) | expression of PCNA [5] | proportion of S-phase and G2/M-phase cells versus untreated cells (Ca Ski cells [6]; 12 and 24 h) | increase of hypodiploid (sub-G1) cells (Ca Ski cells [6]; after 72 h) | selectivity ratio at 72 h [1] | IC50 ([2]; MTT, 72 h exposure) | IC50 for Ca Ski cells ([2]; MTT, 72 h exposure) | IC50 on MRC 5 (MRC 5 normal cells; MTT, 72 h exposure)
1 | CC(C)=CCCC(C)C1CCC2(C)C3CCC4C(C)(C(=O)O)C(OC5OCC(O)C(O)C5O)CC(O)C45CC35CCC12C [MAA, 1α, 3β-dihydroxy-cycloart-24-ene-28-oic acid 3-O-[α-L-arabinopyranoside]] | ~8 | 20–95% | 19.2 µM and 11.6 µg/mL | 94.32 ± 0.75 µg/mL (≈ 156 µM) | approximately 20 fold | almost the same to the exposure assay | modestly inhibited the cell proliferation | prominent antiproliferative effect | significantly decreased | significantly higher | about 20 fold |  |  |  | 
2 | CC(C)=CCCC(C)C1CCC2(C)C3CCC4C(C)(C(=O)O)C(OC5OCC(O)C(O)C5O)CC(O)C45CC35CCC12C [MAX, 1α, 3β-dihydroxy-cycloart-24-ene-28-oic acid 3-O-[β-D-xylopyranoside]] |  | 6–90% |  |  | ~17 fold |  |  |  |  |  |  | ~4 | 33.3 µM | 20.13 ± 0.21 µg/mL | 79.25 ± 0.66 µg/mL (≈ 131 µM)
3 | CC[C@@]1(O)C(=O)OCc2c1cc1n(c2=O)Cc2cc3ccccc3nc2-1 [camptothecin, reference compound] |  |  | 2.51 ± 0.33 µg/mL | 4.74 ± 0.33 µg/mL (≈ 13.6 µM) |  |  |  |  |  |  |  |  |  |  | 
